Source: patent publication US20220062240A1, “METHODS OF TREATING CANCER USING A CLK INHIBITOR” (BioSplice Therapeutics, Inc., priority 2018, published 2022)
Read-outs that look alike come from different tables or passages of the source. Blank lines part the entries; values can stand above or below the molecule they belong to.

Experiments:
[1] = test system: Wnt-responsive Sp5-Luc reporter in SW480 colon carcinoma cells; test: Wnt activity screening assay (Sp5-Luc reporter); type: cell-based; conditions: Homo sapiens
From the text: The screening assay for Wnt activity is described as follows. Reporter cell lines can be generated by stably transducing cancer cell lines (e.g., colon cancer) or primary cells (e.g., IEC-6 intestinal cells) with a lentiviral construct that includes a Wnt-responsive promoter driving expression of the firefly luciferase gene.
SW480 colon carcinoma cells were transduced with a lentiviral vector expressing luciferase with a human Sp5 promoter consisting of a sequence of eight TCF/LEF binding sites. […] These stably transduced SW480 cells were expanded in cell culture and used for all further screening activities. […] For Sp5-Luc reporter gene assays, the cells were plated at 4,000 cells/well in 384-well plates with a DMEM medium containing 1% fetal bovine serum, and 1% Penicillin-Streptomycin and incubated for 36 to 48 hours at 37° C. and 5% CO2. Following incubation, 15 μL of BriteLite Plus luminescence reagent (Perkin Elmer) was added to each well of the 384-well assay plates. The plates were placed on an orbital shaker for 2 min and then luminescence was quantified using the Envision (Perkin Elmer) plate reader.

IRAK1 = target: T1, IRAK1 (Homo sapiens, UniProt P51617); test: Kinase IC50 (SelectScreen); type: biochemical; conditions: Table 8
T1 construct: purchased ThermoFisher SelectScreen

C2BBel = test: CellTiter-Blue Cell Viability Assay; type: cell-based; conditions: Homo sapiens, 96 h, KRASwt, APCmut, 4 days
Experimental: (§1) […]. Effect on cell proliferation was performed using the CellTiter-Blue*® viability assay or the CellTiter-Glo© Viability Assay as recommended by the manufacturer (Promega).
(§2) […]. Fluorescence signal was measured at 560ex/590em nm using the Cytation3 multimodal plate reader (BioTek).

COLO 320HSR = test: CellTiter-Blue Cell Viability Assay; type: cell-based; conditions: Homo sapiens, 96 h, KRASwt, APCmut, 4 days
Experimental: as §1, §2

DLD-1 = test: CellTiter-Blue Cell Viability Assay; type: cell-based; conditions: Homo sapiens, 96 h; DLD-1, KRASmut, APCmut, 4 days
Experimental: as §1, §2

HCT 116 = test: CellTiter-Blue Cell Viability Assay; type: cell-based; conditions: Homo sapiens, 96 h; HCT 116, KRASmut, CTNNB1mut, 4 days
Experimental: as §1, §2

HCT 15 = test: CellTiter-Blue Cell Viability Assay; type: cell-based; conditions: Homo sapiens, 96 h; HCT 15, KRASmut, APCmut, 4 days
Experimental: as §1, §2

HT29 = test: CellTiter-Blue Cell Viability Assay; type: cell-based; conditions: Homo sapiens, HT-29, 96 h; HT29, KRASwt, BRAFmut, APCmut, 4 days
Experimental: as §1, §2

HuTu 80 = test: CellTiter-Blue Cell Viability Assay; type: cell-based; conditions: Homo sapiens, HuTu80, 96 h; HuTu 80, KRASwt, CTNNB1mut, 4 days
Experimental: as §1, §2

LoVo = test: CellTiter-Blue Cell Viability Assay; type: cell-based; conditions: Homo sapiens, 96 h, KRASmut, APCmut, 4 days
Experimental: as §1, §2

RKO = test: CellTiter-Blue Cell Viability Assay; type: cell-based; conditions: Homo sapiens, 96 h, KRASwt, BRAFmut, 4 days
Experimental: as §1, §2

SW1417 = test: CellTiter-Blue Cell Viability Assay; type: cell-based; conditions: Homo sapiens, 96 h; SW1417, KRASwt, BRAFmut, APCmut, 4 days
Experimental: as §1, §2

SW480 = test: CellTiter-Blue Cell Viability Assay; type: cell-based; conditions: Homo sapiens, 96 h; SW480, KRASmut, APCmut, 4 days
Experimental: as §1, §2

SW620 = test: CellTiter-Blue Cell Viability Assay; type: cell-based; conditions: Homo sapiens, SW-620, 96 h; SW620, KRASmut, APCmut, 4 days
Experimental: as §1, §2

T84 = test: CellTiter-Blue Cell Viability Assay; type: cell-based; conditions: Homo sapiens, 96 h; T84, KRASmut, APCmut, 4 days
Experimental: as §1, §2

SW480 cells = test: Wnt pathway gene (qRT-PCR) and protein (immunoblot) expression; type: cell-based, human
Experimental: Fold-change relative to DMSO is shown (n=3 biological replicates per group, Mean±SD, **P<0.01; ***P<0.001, student's two-tailed t-test).
(§3) FIG. 6D is an immunoblot showing Wnt pathway-related protein expression in SW480 cells treated as indicated for 24 hours. The proteins were separated into nuclear and cytoplasmic fractions. GAPDH and Lamin B1 represent cytoplasmic and nuclear protein loading controls, respectively. The blots are representative of two experiments.
as §3, with “6E” for “6D”, “48” for “24”
The fold-change relative to DMSO is shown (n=3 biological replicates per group, Mean±SD, *P<0.05; **P<0.01; ***P<0.001, student's two-tailed t-test).
FIG. 7C is an immunoblot showing protein expression of hits identified in FIG. 7A. SW480 cells were treated as indicated for 24 hours and proteins were separated into nuclear and cytoplasmic fractions. GAPDH and Lamin B1 represent the cytoplasmic and nuclear protein loading controls, respectively. The blots are representative of two experiments.
For indicated experiments, cells were pelleted by centrifugation and washed with PBS and protein from the cell pellet was fractionated into cytoplasmic and nuclear fractions using a NE-PER™Nuclear and Cytoplasmic Extraction Reagents kit containing Halt™ protease and phosphatase inhibitors (Thermo Fisher). Protein concentrations of the samples were quantified using the Pierce Micro BCA protein assay kit (Thermo Fisher). […] Primary antibodies were incubated overnight at 4° C., with GAPDH, Lamin B1 or β-actin being used as loading controls (refer to Table 19 for primary antibodies and dilutions used).
Total RNA was isolated using RNeasy Plus mini kit (Qiagen) or MagMAX Total RNA kit (Thermo Fisher) as per the manufacturers' protocol. cDNA was synthesized using the iScript cDNA Synthesis Kit (Bio-Rad), followed before performing qRT-PCR. Reactions were then run on a real-time PCR system (CFX384; Bio-Rad). Relative gene expression was determined by normalizing to GAPDH using the ΔΔCt method.

[2] = target: cyclin-dependent kinase 1 (CDK1) (Homo sapiens, UniProt P06493); test: CDK1 kinase assay (Z-LYTE)
Experimental: Compounds were acoustically transferred on 1536-well plates (Echo 550, LabCyte) instrument. Kinase, peptide, and ATP reagents from the Z′-LYTE Kinase Assay Kits (Thermo Fisher) were dispensed onto the compound plates using an EL406 liquid dispenser (BioTek). Plates were incubated in the dark at room temperature for 1 hr. Development reagent was added to the plates and then incubated in the dark at room temperature for 1 hr. Fluorescence signal form the plate was then read using an EnVision Multilabel Plate Reader (Perkin Elmer).

[3] = SW480 Sp5-Luc reporter, 36 to 48 hours, read-out: EC50
[4] = SW480, 24 hours, compared to DMSO

T1 sequence (P51617 whole entry): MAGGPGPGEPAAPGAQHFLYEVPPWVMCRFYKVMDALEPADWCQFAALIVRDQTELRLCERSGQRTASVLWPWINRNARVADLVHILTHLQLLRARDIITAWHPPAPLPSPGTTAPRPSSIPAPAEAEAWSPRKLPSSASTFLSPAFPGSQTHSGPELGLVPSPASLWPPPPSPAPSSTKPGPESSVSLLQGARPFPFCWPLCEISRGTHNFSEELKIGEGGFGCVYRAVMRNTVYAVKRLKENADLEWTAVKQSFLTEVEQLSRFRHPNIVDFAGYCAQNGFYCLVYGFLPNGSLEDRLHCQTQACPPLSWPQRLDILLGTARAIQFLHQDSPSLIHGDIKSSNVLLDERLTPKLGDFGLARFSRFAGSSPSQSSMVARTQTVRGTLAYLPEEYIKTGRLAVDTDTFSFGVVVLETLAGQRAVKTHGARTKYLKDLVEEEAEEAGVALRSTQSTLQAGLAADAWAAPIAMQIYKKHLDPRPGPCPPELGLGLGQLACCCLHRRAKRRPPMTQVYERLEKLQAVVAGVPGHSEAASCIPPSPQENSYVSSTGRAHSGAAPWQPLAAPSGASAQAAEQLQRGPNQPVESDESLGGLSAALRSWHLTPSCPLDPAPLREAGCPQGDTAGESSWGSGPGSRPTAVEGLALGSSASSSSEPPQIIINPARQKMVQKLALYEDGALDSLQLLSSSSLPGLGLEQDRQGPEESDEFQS
Sequence of cyclin-dependent kinase 1 (CDK1) (P06493 whole entry): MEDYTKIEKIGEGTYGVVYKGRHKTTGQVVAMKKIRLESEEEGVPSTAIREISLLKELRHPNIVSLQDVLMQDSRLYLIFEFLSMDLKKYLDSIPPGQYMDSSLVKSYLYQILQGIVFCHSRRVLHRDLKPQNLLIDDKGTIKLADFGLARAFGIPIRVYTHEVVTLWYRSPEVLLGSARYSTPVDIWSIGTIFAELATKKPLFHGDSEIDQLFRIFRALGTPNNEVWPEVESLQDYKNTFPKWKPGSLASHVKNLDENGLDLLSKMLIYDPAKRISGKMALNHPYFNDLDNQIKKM
Sequence of cyclin-dependent kinase 1 (CDK1) (P14635 whole entry partner): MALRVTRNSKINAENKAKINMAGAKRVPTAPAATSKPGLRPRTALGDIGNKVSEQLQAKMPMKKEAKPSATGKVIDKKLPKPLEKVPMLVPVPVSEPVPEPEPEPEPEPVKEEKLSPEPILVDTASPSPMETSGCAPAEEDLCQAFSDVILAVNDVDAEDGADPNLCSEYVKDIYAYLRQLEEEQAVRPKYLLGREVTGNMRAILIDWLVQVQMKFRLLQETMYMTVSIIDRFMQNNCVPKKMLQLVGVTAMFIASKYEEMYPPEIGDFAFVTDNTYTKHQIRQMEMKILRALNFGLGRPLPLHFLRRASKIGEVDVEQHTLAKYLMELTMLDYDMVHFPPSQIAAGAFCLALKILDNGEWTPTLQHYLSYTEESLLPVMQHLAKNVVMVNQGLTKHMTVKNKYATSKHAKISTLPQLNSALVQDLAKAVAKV

EC50 [1, 3]: 21 nM
Compound: CN(C)Cc1cncc(-c2cnc3[nH]nc(-c4nc5c(-c6cc(F)cc(N7CCOCC7)c6)cncc5[nH]4)c3c2)c1 [Compound 46]

EC50 [1, 3]: 225 nM
Compound: Cc1n[nH]c2ccc(-c3cncc(N[C@H]4CC[C@@H](N)CC4)n3)cc12 [Compound 64]

EC50 [1, 3]: 310 nM
Compound: c1cncc(-c2ccc3[nH]nc(-c4cc5c(-c6cccnc6)cncc5[nH]4)c3c2)c1 [Compound 48]

EC50 [1, 3]: 170 nM
Compound: Cn1ncc(-c2ccc3cnc(NC(=O)C4CC5(C4)CN(CCF)C5)cc3c2)c1CN1CCCCC1 [Compound 77]

EC50 [1, 3]: > 10000 nM
Compound: O=C1CCc2cccc(c2)-c2cncc(c2)NC(=O)c2n[nH]c3ccc(cc23)-c2cncc(c2)CN1 [Compound 62]

Compound: CN1CCN(c2cc(C(=O)Nc3cc4cc(-c5cnn(C)c5)ccc4cn3)ccn2)CC1 [Compound 12]
IC50 (IRAK1): 20 nM
EC50 (C2BBel): 78 nM
EC50 (COLO 320HSR): 110 nM
EC50 (DLD-1): 303 nM
EC50 (HCT 116): 103 nM
EC50 (HCT 15): 120 nM
EC50 (HT29): 189 nM
EC50 (HuTu 80): 178 nM
EC50 (LoVo): 194 nM
EC50 (RKO): 120 nM
EC50 (SW1417): 282 nM
EC50 (SW480): 85 nM
EC50 (SW620): 87 nM
EC50 (T84): 127 nM
cytoplasmic and nuclear protein levels of β-catenin (SW480 cells; SW480): unaffected
Wnt pathway protein expression in cytoplasmic or nuclear fractions (SW480 cells; SW480, 24 or 48 hours, all tested proteins except β-catenin): inhibition of protein expression
FRZB gene expression (SW480 cells; SW480, 24 hours): Upregulation
GSK3β gene expression (SW480 cells; SW480, 24 hours): no effect
PPP3CC gene expression (SW480 cells; SW480, 24 hours): inhibitory effect
gene and protein expression of LRP6 (SW480 cells; SW480, 24 hours): inhibited, but not as potently as LRP5
gene expression of AXIN2, LEF1, MYC, TCF7, CTNNB1 and TCF7L2 (SW480 cells; [4]): dose-dependent decrease
gene expression of LRP5, DVL2, BTRC, ERRB2, MAPK8, PKN1 (SW480 cells; [4]): significantly downregulated
protein expression of LRP5, LRP6, DVL2, β-TrcP and HER2 (SW480 cells; SW480, 24 hours, relative to DMSO): pronounced dose-dependent inhibition
inhibitory effects on MAPK8 and PKN1 protein expression (SW480 cells; SW480, compared to vehicle): less profound
IC50 [2]: 1100 nM

EC50 [1, 3]: 80 nM
Compound: CN1CCN(c2ccc(NC(=O)c3n[nH]c4ccc(-c5cncc(NC(=O)C6CC6)c5)cc34)cn2)CC1 [Compound 60]

EC50 [1, 3]: 19 nM
Compound: CN1CCC(C(=O)Nc2c[nH]nc2-c2nc3c(-c4ccc(F)s4)cccc3[nH]2)CC1 [Compound 90]

EC50 [1, 3]: 1850 nM
Compound: O=C(Nc1ccc(OCCN2CCCC2)cc1)c1n[nH]cc1/C=C/c1cccnc1 [Compound 92]

EC50 [1, 3]: 284 nM
Compound: CN1CCN(c2cc(Nc3ncc4c(-c5ccc6ncccc6c5)c[nH]c4n3)ccn2)CC1 [Compound 67]

EC50 [1, 3]: 15 nM
Compound: COc1ccc(NC(=O)c2n[nH]c3ccc(-c4cncc(CN5CCCCC5)c4)cc23)cn1 [Compound 59]

EC50 [1, 3]: 95 nM
Compound: Cc1n[nH]c2ccc(-c3cncc(N[C@H]4CC[C@H](O)CC4)n3)cc12 [Compound 65]

EC50 [1, 3]: 3 nM
Compound: O=C(Nc1c[nH]nc1-c1nc2c(-c3cccc(F)c3)cncc2[nH]1)c1cccnc1 [Compound 91]

EC50 [1, 3]: 285 nM
Compound: O=C(Nc1cncc(-c2ccc3[nH]nc(-c4cc5cnccc5[nH]4)c3c2)c1)C1CCCCC1 [Compound 47]

EC50 [1, 3]: 694 nM
Compound: CN1CCC(Sc2ccc3cnc(NC(=O)c4ccnc(SC5CCN(C)CC5)c4)cc3c2)CC1 [Compound 88]

EC50 [1, 3]: 144 nM
Compound: CN1CCC(Oc2ccc(NC(=O)c3n[nH]c4cc(F)c(-c5cnn(C)c5)cc34)cc2)CC1 [Compound 61]

EC50 [1, 3]: 107 nM
Compound: Cc1ncc(C(=O)Nc2cc3nc(-c4cnc(C)n4C)ccc3cn2)s1 [Compound 82]

Compound: CN1CCN(C(=O)C(C)(C)c2ccc(C(=O)Nc3cn4cc(-c5ccncc5)ccc4n3)cc2)CC1 [Compound 27]
EC50 ([1]; SW480): 116 nM

EC50 [1, 3]: 338 nM
Compound: CN1CCCn2cc(nn2)-c2nccc3[nH]c(nc23)-c2n[nH]c3ccc(cc23)-c2cncc(c2)C1 [Compound 57]

EC50 [1, 3]: 1810 nM
Compound: Cc1n[nH]c2cc(F)c(-c3cncc(CN4CCNCC4)c3)cc12 [Compound 63]

EC50 [1, 3]: 964 nM
Compound: CN1CCC(Oc2ccc(NC(=O)c3n[nH]cc3/C=C/c3cccnc3)cn2)CC1 [Compound 93]

EC50 [1, 3]: 62 nM
Compound: [2H]c1c([2H])c([2H])c(/C=C/C(=O)Nc2cc3cc(-c4cncn4C)ccc3cn2)c([2H])c1[2H] [Compound 81]
